Results as given in US20110172182A1, “Carboxyethylated Cyclodextrin Polysulfates Useful As Medicaments” (ARCARIOS B.V., priority 2008, published 2011).

Key:
[1] = tested on: human articular chondrocytes from osteoarthritic (OA) cartilage; assay: Aggrecan synthesis by OA chondrocytes in alginate beads (ELISA of interterritorial matrix); format: cell-based; conditions: 5 μg/ml, 5 culture days
From the text: (§1) Human articular chondrocytes were isolated as described in J. Tissue Culture Methods (1993) 15:139-146). Briefly, human articular cartilage was obtained at total knee replacement surgery from femoral condyles and the tibial plateau of 15 different donors. None of them had received corticosteroids or cytostatic drugs. Both visually intact and fibrillated OA cartilage samples were harvested separately and only OA cartilage was used for cell culture. The cartilage samples were diced into small fragments and the chondrocytes were isolated by sequential enzymatic digestion (hyaluronidase, pronase and collagenase) of the extracellular matrix (ECM) as described in Osteoarthritis Cartilage (2001) 9:73-84. Isolated cells were then centrifuged for 10 minutes at 1500 rpm, washed three times in Dulbecco's Modified Eagle's Medium (DMEM) with 10% (v/v) fetal calf serum, and counted with trypan blue to exclude dead cells. More than 90% of the cells were viable after isolation.
(§2) Chondrocytes were cultured in alginate beads, to maintain their differentiated phenotype. The cultures were prepared as described in Connect Tissue Res. (1989) 19:277-297. Chondrocytes suspended in one volume of double-concentrated Hank's Balanced Salts Solution (HBSS, commercially available from Gibco) without calcium and magnesium were carefully mixed with an equal volume of 2% (w/v) autoclaved alginate (low-viscosity alginate from Macrocystis pyrifera, commercially available from Sigma) in HBSS. The final cell concentration was 5×10^6 chondrocytes per ml in 1% alginate. The chondrocyte/alginate suspension was then slowly dripped through a 23-gauge needle into a 102 mM calcium chloride solution. […]
(§3) To study the impact of the changes in the chondrocyte cultures after cyclodextrin polysulfate treatment, mean IL-6 and aggrecan concentrations were calculated from triplicate chondrocyte cultures of each donor. […] Evolution of mouse weight over time was analysed by longitudinal data analysis methods, more specific by area under the curve and mixed model analysis. […]

[2] = tested on: human articular chondrocytes from osteoarthritic (OA) cartilage; assay: IL-6 release by OA chondrocytes in alginate beads; format: cell-based; conditions: 5 μg/ml, 5 culture days
From the text: as §1, §2, §3

normal pooled plasma = assay: Blood coagulation activities (aPTT, PT, fibrinogen) in normal pooled plasma; parameters: species or system human; conditions: after incubation with 50 or 100 μg/ml
Method: MA-CDPS, HP-CDPS, CE-CDPS and CDPS (as defined in examples 3-4 and characterised in table 1) were prepared as buffered solutions at various concentrations. The polysaccharides were incubated with normal pooled plasma prepared out of 40 healthy volunteers and analyzed for their effects on activated partial thromboplastin time (aPTT), prothrombin time (PT) and fibrinogen levels on a STA Compact® coagulation analyzer (available from Diagnostica Stago, Asnieres, France) according to the manufacturers instructions.

[3] = tested on: healthy donor thrombocytes; assay: Platelet activation (CD62p, flow cytometry) by HIT patient anti-heparin/PF4 antibodies; format: cell-based, human; conditions: for ratio: % CD62p+ (with substance)/% CD62p+ (without) / ΔCD62p+ %: percentage increases in CD62p positive platelets: 0.3 IU heparin or 5 μg/ml polysaccharide
Method: The activation of healthy donor thrombocytes by HIT patient anti-heparin/PF4 antibodies in the presence of heparin and the differently sulfated forms of β-cyclodextrin was tested. […] The expression of CD62p by the activated platelets was assayed by means of flow cytometry with a FC500 analyzer (available from Beckman Coulter, Belgium). Platelet-rich plasma solution (PRP) was prepared by slow centrifugation (10 minutes at 180 g) of fresh citrate anti-coagulated blood (1:9 v/v, 0.129 mol/L or 3.8% trisodium citrate buffer), obtained from normal donors. HIT Ab positive plasma samples from patients and HIT Ab negative control plasma from healthy donors were prepared by double centrifugation (15 minutes at 2230 rpm) of fresh citrate anti-coagulated blood. 70 μl of PRP was incubated with 20 μL of HIT Ab containing plasma optionally in the presence of heparin (0.3 IU/ml) or the relevant β-cyclodextrin derivative (5 μg/ml). Experiments with each HIT Ab positive plasma sample were repeated independently using thrombocytes of 2 donors (A and B), to avoid the possibility of non-reactive platelets.
Following the initial 40 minutes incubation step, 5 μl of the platelets solution was transferred to a fresh tube with 85 μL phosphate buffered saline (PBS) containing 1% bovine serum albumin (BSA) and 0.1% Na-azide, 5 μl (0.25 μg) monoclonal anti-CD41 antibodies (Ab) (phycoerythrin-Texas Red Energy coupled dye (ECD)-conjugated, Beckman Coulter) and 5 μl (0.125 μg) of anti-CD62p Ab (phycoerythrin (PE)-conjugated, Beckman Coulter). CD41 (Glycoprotein […]) is a selective marker of platelets and platelet precursors. CD62p is a constituent of alpha granules and is released to the platelet surface on activation.
After 20 minutes of incubation at room temperature, the total volume of the platelet suspension was adjusted to 600 μL buffered solution and evaluated without delay by flow cytometry. 20,000 events per sample were analysed and the platelet populations were gated by side scatter characteristics and the platelet marker CD41. The fraction of activated platelets among the total platelet population was determined and relative CD62p ratios to the internal controls were calculated. [ratio: % CD62p^+ (0.3 IU Heparine or 5 μg/ml β-cyclodextrin derivative)/% CD62p^+ (0 IU Heparine or 0 μg/ml β-cyclodextrin derivative)]. Test results for the heparin treated platelets were evaluated by the scoring system described in Thromb. Haemost. (1999) 82:1255-1259. Control tests were scored positive when the calculated ratios of at least 2 donors were more then 2, based on previously obtained results with normal individuals. To evaluate the potential of the different β-cyclodextrin derivatives to induce platelet activation, both the percentages and ratios of CD62p^+ platelets after incubation with the respective β-cyclodextrin were statistically compared to the percentage and the ratio of CD62p^+ platelets after heparin incubation.

[4] = tested on: rabbit model of experimental osteoarthritis (OA); conditions: subcutaneously administered; cited from earlier work
thrombin clotting = conditions: in vitro; cited from earlier work
[5] = HIT ab plasma pat1, platelet donor dA
[6] = HIT ab plasma pat1, platelet donor dB
[7] = HIT ab plasma pat2, platelet donor dB
[8] = HIT ab plasma pat3, platelet donor dA
[9] = HIT ab plasma pat3, platelet donor dB
[10] = HIT ab plasma pat4, platelet donor dA
[11] = HIT ab plasma pat4, platelet donor dB

Question: With “2,3-di-O-methyl-6-sulfate-β-cyclodextrin [ME-CD-6-S]” as the compound, how does the “effect on chondrocyte aggrecan synthesis” value [1] read?
Answer: failed to affect

Question: What about the “effect on chondrocyte IL-6 release/secretion” value [2] of the same compound?
Answer: failed to affect

Question: For “2,6-di-O-methyl-3-sulfate-β-cyclodextrin [ME-CD-3-S]”, which “effect on chondrocyte aggrecan synthesis” value [1] is on record?
Answer: failed to affect

Question: What about the “effect on chondrocyte IL-6 release/secretion” value [2] of the same compound?
Answer: failed to affect

Question: For `COC[C@H]1O[C@@H]2O[C@H]3[C@H](OC)[C@@H](OC)[C@@H](O[C@H]4[C@H](OC)[C@@H](OC)[C@@H](O[C@H]5[C@H](OC)[C@@H](OC)[C@@H](O[C@H]6[C@H](OC)[C@@H](OC)[C@@H](O[C@H]7[C@H](OC)[C@@H](OC)[C@@H](O[C@H]8[C@H](OC)[C@@H](OC)[C@@H](O[C@H]1[C@H](OC)[C@H]2OC)O[C@@H]8COC)O[C@@H]7COC)O[C@@H]6COC)O[C@@H]5COC)O[C@@H]4COC)O[C@@H]3COC` [ME-CD, 2,3,6-tri-O-methyl-β-cyclodextrin], which “effect on chondrocyte aggrecan synthesis” value [1] is on record?
Answer: failed to promote

Question: And the “effect on chondrocyte IL-6 release/secretion” value [2]?
Answer: failed

Question: With β-cyclodextrin polysulfate [CDPS] as the compound, how does the fibrinogen concentrations (normal pooled plasma) read?
Answer: Minor decreases

Question: And the “ratio: % CD62p+ (with substance)/% CD62p+ (without)” value (from here on “ratio: % CD62p+ … (without)”) [3, 5]?
Answer: 5.8

Question: What about the “ΔCD62p+ %: percentage increases in CD62p positive platelets” value (“ΔCD62p+ %: percentage increases” below) [3, 5] of the same compound?
Answer: 76.1%

Question: And the “ratio: % CD62p+ … (without)” value [3, 6]?
Answer: 6.5

Question: And the “ΔCD62p+ %: percentage increases” value [3, 6]?
Answer: 73.1%

Question: What about the “ΔCD62p+ %: percentage increases” value ([3]; HIT ab plasma pat2, platelet donor dA) of the same compound?
Answer: 27.5%

Question: What about the “ratio: % CD62p+ … (without)” value [3, 7] of the same compound?
Answer: 0.7

Question: What about the “ΔCD62p+ %: percentage increases” value [3, 7] of the same compound?
Answer: −2.8%

Question: And the “ratio: % CD62p+ … (without)” value [3, 8]?
Answer: 2.5

Question: And the “ΔCD62p+ %: percentage increases” value [3, 8]?
Answer: 42.7%

Question: And the “ratio: % CD62p+ … (without)” value [3, 9]?
Answer: 7.0

Question: What about the “ΔCD62p+ %: percentage increases” value [3, 9] of the same compound?
Answer: 34.1%

Question: What about the “ratio: % CD62p+ … (without)” value [3, 10] of the same compound?
Answer: 4.4

Question: And the “ΔCD62p+ %: percentage increases” value [3, 10]?
Answer: 63.5%

Question: And the “ratio: % CD62p+ … (without)” value [3, 11]?
Answer: 2.5

Question: And the “ΔCD62p+ %: percentage increases” value [3, 11]?
Answer: 58.1%

Question: And the platelet activation ([3]; in the presence of plasma samples of individuals that had developed HIT Ab)?
Answer: induced platelet activation

Question: And the “cartilage lesions and osteocyte formation in the affected joints” value [4]?
Answer: reduced

Question: What about the thrombin clotting times (thrombin clotting) of the same compound?
Answer: prolongation

Question: And the thrombus formation (thrombin clotting)?
Answer: reduction
